According to patent US12252490B2, “Inhibiting deubiquitinase USP25 and USP28” (Valo Health, Inc., priority 2018, dated 2025):

The molecules below were run against T1, USP28 (His-tagged USP28-FL-mammalian) (Homo sapiens, UniProt Q96RU2) (assay: Ubiquitin-Rhodamine 110 Assay for USP28 Activity, Example A-1(a)). Conditions: USP28, 75 pM enzyme, 25 nM Ub-Rh110, 1536-well, 30 min preincubation; read-out: Assay A-1(a) (IC50 range).
T1 construct: Expression of USP28 (1-1077)-TEV-6*His (pTT5 vector) was carried out in Expi293f cells; made in house; host or cells: Expi293f cells (pTT5 vector)
T1 sequence (Q96RU2 1-1077): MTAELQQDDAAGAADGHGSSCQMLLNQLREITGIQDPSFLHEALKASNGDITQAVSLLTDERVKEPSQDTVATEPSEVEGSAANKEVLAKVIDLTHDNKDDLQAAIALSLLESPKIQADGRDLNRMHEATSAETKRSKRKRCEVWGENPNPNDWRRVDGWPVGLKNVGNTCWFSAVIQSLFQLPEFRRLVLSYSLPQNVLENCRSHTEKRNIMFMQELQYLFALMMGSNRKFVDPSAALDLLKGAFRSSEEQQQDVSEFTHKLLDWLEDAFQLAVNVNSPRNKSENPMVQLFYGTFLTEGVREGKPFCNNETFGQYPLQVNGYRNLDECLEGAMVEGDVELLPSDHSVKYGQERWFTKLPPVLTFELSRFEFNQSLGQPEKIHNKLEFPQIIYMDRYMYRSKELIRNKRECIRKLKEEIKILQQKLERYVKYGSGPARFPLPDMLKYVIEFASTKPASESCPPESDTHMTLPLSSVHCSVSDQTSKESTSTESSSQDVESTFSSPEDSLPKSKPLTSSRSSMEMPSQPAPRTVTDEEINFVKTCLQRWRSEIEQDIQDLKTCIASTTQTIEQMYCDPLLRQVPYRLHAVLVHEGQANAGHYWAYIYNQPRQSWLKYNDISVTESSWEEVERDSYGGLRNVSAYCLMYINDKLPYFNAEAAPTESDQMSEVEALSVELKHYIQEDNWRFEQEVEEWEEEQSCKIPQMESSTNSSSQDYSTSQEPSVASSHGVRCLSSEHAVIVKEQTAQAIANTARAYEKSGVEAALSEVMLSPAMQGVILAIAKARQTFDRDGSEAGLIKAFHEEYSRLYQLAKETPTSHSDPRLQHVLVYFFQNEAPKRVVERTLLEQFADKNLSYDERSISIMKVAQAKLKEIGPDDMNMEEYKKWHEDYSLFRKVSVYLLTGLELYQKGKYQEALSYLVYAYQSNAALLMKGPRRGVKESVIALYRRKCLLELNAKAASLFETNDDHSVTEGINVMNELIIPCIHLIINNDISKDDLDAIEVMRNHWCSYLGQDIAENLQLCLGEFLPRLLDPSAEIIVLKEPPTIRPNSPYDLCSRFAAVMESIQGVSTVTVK
Assay type: biochemical
Method: The assay was performed in a final volume of 9 μL in assay buffer containing 20 mM Tris-HCl (pH 8.0, (1M Tris-HCl, pH 8.0 solution; Corning 46-031-CM)), 3 mM BME (2-Mercaptoethanol; Sigma 63689-25ML-F), 0.03% BGG (0.22 μM filtered, Sigma, G7516-25G), and 0.01% Triton X-100 (Sigma, T9284-10L). Nanoliter quantities of 10-point, 3-fold serial dilution in DMSO was pre-dispensed into 1536 assay plates (Corning, #3724BC) for a final test concentration of 25 μM to 1.3 nM, top to lowest dose, respectively. Enzyme USP28, construct His-tagged USP28-FL-mammalian, (protein expression and purification procedure described below). Concentration and incubation times were optimized for the maximal signal-to-background while maintaining initial velocity conditions at a fixed substrate concentration. The final concentration of the enzyme in the assay was 75 pM. Final substrate (Ub-Rh110; Ubiquitin-Rhodamine 110, UbiQ-126) concentration was 25 nM with [Ub-Rh110]<<Km. 3 μL of 2× enzyme was added to assay plates (pre-stamped with compound) preincubated with […] for 30 minutes and then 3 μL of 2×Ub-Rh110 was added to assay plates. Plates were incubated for 45 minutes at room temperature before addition of 3 μL of stop solution (final concentration of 10 mM citric acid (Sigma, 251275-500G)). Fluorescence was read on the Envision (Excitation at 485 nm and Emission at 535 nm; Perkin Elmer) or on the PheraSTAR (Excitation at 485 nm and Emission at 535 nm; BMG Labtech).
Expression of USP28 (1-1077)-TEV-6*His (pTT5 vector) was carried out in Expi293f cells (sequence derived from uniprot ID: Q96RU2-1). Cells were re-suspended in lysis buffer B 50 mM Bicine, pH 8.0, 20 mM NaCl, 5% glycerol, 0.1% CHAPS, 5 mM β-ME, 1 mM PMSF, 1 μg/ml Leupeptin, 1 μg/ml Pepstatin) and lysed by sonication. Insoluble material was removed by centrifugation and the supernatant was loaded onto a Ni-NTA column (GE Healthcare) equilibrated with Ni Buffer A (50 mM Bicine, pH 8.0, 20 mM NaCl, 5% glycerol, 0.1% CHAPS, 5 mM β-ME.) and washed with Ni Buffer A+20 mM imidazole until A280 reached baseline. The protein was eluted with Ni Buffer B (50 mM Bicine, pH 8.0, 20 mM NaCl, 5% glycerol, 0.1% CHAPS, 5 mM β-ME, 300 mM imidazole.). The protein was further purified using a Superdex™ 200 10/300 GL column (GE Healthcare) equilibrated with 50 mM Bicine, pH 8.0, 20 mM NaCl, 5% glycerol, 0.1% CHAPS, 5 mM β-ME. The protein was concentrated to 2.5 mg ml^−1, flash-frozen in liquid N2 and stored at −80° C.
For assay formats Examples A-1a, A-1b, and A-2, data were reported as percent inhibition compared with control wells based on the following equation: % inh=1−((FLU−AveLow)/(AveHigh−AveLow)) where FLU=measured Fluorescence, AveLow=average Fluorescence of no enzyme control (n=16), and AveHigh=average Fluorescence of DMSO control (n=16). IC50 values were determined by curve fitting of the standard 4 parameter logistic fitting algorithm included in the Activity Base software package: IDBS XE Designer Model205. Data is fitted using the Levenburg Marquardt algorithm.

Compared with CC(C)(O)Cn1ccc2cc(C(=O)NCCc3cc(F)c(N4CC5CCC(C4)N5)cc3F)cnc21 [Example 1-9, N-(4-(3,8-diazabicyclo[3.2.1]octan-3-yl)-2,5-difluorophenethyl)-1-(2-hydroxy-2-methylpropyl)-1H-pyrrolo[2,3-b]pyridine-5-carboxamide], CCn1ccc2cc(C(=O)NCCc3cc(F)c(N4CC5CCC(C4)N5)cc3F)cnc21 [Example 1-1, N-[2-(4-[3,8-diazabicyclo[3.2.1]octan-3-yl]-2,5-difluorophenyl)ethyl]-1-ethyl-1H-pyrrolo[2,3-b]pyridine-5-carboxamide] is lower in IC50: 2000 to 10000 nM for the first, 1 to 50 nM for the second. The second is the more potent here.

Compared with CCn1ccc2cc(C(=O)NC[C@@H](C)c3cc(F)c(N4CCNCC4)cc3F)cnc21 (single isomer, unassigned) [Example 2-1], CCn1ccc2cc(C(=O)NC[C@H](C)c3cc(F)c(N4CCNCC4)cc3F)cnc21 (single isomer, unassigned) [Example 2-2] is higher in IC50: 50 to 200 nM for the first, 200 to 2000 nM for the second. The first is the more potent here.

Compared with CCn1ccc2cc(C(=O)NC[C@H](C)c3cc(F)c(N4CC5CCC(C4)N5)cc3F)cnc21 (single isomer, unassigned) [Example 2-3], CCn1ccc2cc(C(=O)NC[C@@H](C)c3cc(F)c(N4CC5CCC(C4)N5)cc3F)cnc21 (single isomer, unassigned) [Example 2-4] is higher in IC50: 1 to 50 nM for the first, 50 to 200 nM for the second.

O=C(NCCc1ccc(N2CCNCC2)cc1)c1cnc2[nH]cc(Cl)c2c1 [Example 3-2, 3-chloro-N-(4-(piperazin-1-yl)phenethyl)-1H-pyrrolo[2,3-b]pyridine-5-carboxamide] and O=C(NCCc1ccc(N2CCNCC2)cc1)c1cnc2[nH]ccc2c1 [Example 1-2, N-(4-(piperazin-1-yl)phenethyl)-1H-pyrrolo[2,3-b]pyridine-5-carboxamide] fall in the same range of IC50: 200 to 2000 nM for the first, 200 to 2000 nM for the second.

CCn1cc(Cl)c2cc(C(=O)NCCc3ccc(N4CCNCC4)cc3)cnc21 [Example 3-1, 3-Chloro-1-ethyl-N-[2-[4-(piperazin-1-yl)phenyl]ethyl]-1H-pyrrolo[2,3-b]pyridine-5-carboxamide] and CCn1ccc2cc(C(=O)NCCc3ccc(N4CCNCC4)cc3)cnc21 [Example 1-4, 1-ethyl-N-(4-(piperazin-1-yl)phenethyl)-1H-pyrrolo[2,3-b]pyridine-5-carboxamide] fall in the same range of IC50: 1 to 50 nM for the first, 1 to 50 nM for the second.

CCn1ccc2cc(C(=O)NCCc3cc(F)c(N4CCNCC4)cc3F)cnc21 [Example 1-7, N-(2,5-difluoro-4-(piperazin-1-yl)phenethyl)-1-ethyl-1H-pyrrolo[2,3-b]pyridine-5-carboxamide] and CCn1ccc2cc(C(=O)NCCc3cc(F)c(N4CC5CCC(C4)N5)cc3F)nnc21 [Example 4-1, N-[2-(4-[3,8-diazabicyclo[3.2.1]octan-3-yl]-2,5-difluorophenyl)ethyl]-7-ethyl-7H-pyrrolo[2,3-c]pyridazine-3-carboxamide] fall in the same range of IC50: 1 to 50 nM for the first, 1 to 50 nM for the second.

CCn1ccc2cc(C(=O)NCCc3ccc(N4CC5CCC(C4)N5)cc3)cnc21 [Example 1-6, N-(4-(3,8-diazabicyclo[3.2.1]octan-3-yl)phenethyl)-1-ethyl-1H-pyrrolo[2,3-b]pyridine-5-carboxamide] and CCn1ccc2cc(C(=O)NCCc3ccc(N4CC5CCC(C4)N5)c(F)c3)cnc21 [Example 1-10, N-(4-(3,8-diazabicyclo[3.2.1]octan-3-yl)-3-fluorophenethyl)-1-ethyl-1H-pyrrolo[2,3-b]pyridine-5-carboxamide] fall in the same range of IC50: 1 to 50 nM for the first, 1 to 50 nM for the second.

First: CCn1cc(Cl)c2cc(C(=O)NCCc3cc(F)c(N4CC5CCC(C4)N5)cc3F)nnc21 [Example 4-4, N-(4-(3,8-diazabicyclo[3.2.1]octan-3-yl)-2,5-difluorophenethyl)-5-chloro-7-ethyl-7H-pyrrolo[2,3-c]pyridazine-3-carboxamide]
Second: CCn1ccc2cc(C(=O)NC[C@H](C)c3cc(F)c(N4CC5CCC(C4)N5)cc3F)nnc21 (single isomer, unassigned) [Example 4-2]
The IC50 of the first is lower: 1 to 50 nM for the first, 50 to 200 nM for the second.

Nc1c(C(=O)NCCc2ccc(N3CCNCC3)cc2)cnc2[nH]ccc12 [Example 1-5, 4-amino-N-(4-(piperazin-1-yl)phenethyl)-1H-pyrrolo[2,3-b]pyridine-5-carboxamide] and Cn1ccc2cc(C(=O)NCCc3ccc(N4CCNCC4)cc3)cnc21 [Example 1-3, 1-methyl-N-(4-(piperazin-1-yl)phenethyl)-1H-pyrrolo[2,3-b]pyridine-5-carboxamide] fall in the same range of IC50: 200 to 2000 nM for the first, 200 to 2000 nM for the second.

First: O=C(NCCc1ccc(N2CCNCC2)cc1)c1cnc2c(ccn2CC(F)(F)F)c1 [Example 1-8]
Second: CCn1ccc2cc(C(=O)NC[C@@H](C)c3cc(F)c(N4CC5CCC(C4)N5)cc3F)nnc21 (single isomer, unassigned) [Example 4-3]
The IC50 of the first is lower: 1 to 50 nM for the first, 50 to 200 nM for the second. The first is the more potent here.
